# From US20230348394A1, “COMPOSITIONS AND METHODS FOR TREATING MUSCULAR DYSTROPHIES” (The Regents of the University of California, priority 2020, published 2023)
# Tests used:
# [1] = Preliminary safety assessment, IP injection in C57/B16 mice; type: in vivo
# Experimental: For the preliminary safety assessment of OT-9, we performed IP injections in 6 month old C57/B16 males. The mice were injected with 100 μl of vehicle (5% DMSO (Sigma), 95% PBS), 100 μl of 30 mg/kg of OT-9 in vehicle, or 100 μl of 50 mg/kg of OT-9 in vehicle (n=1 mouse per treatment). […] For assessment of activity, 20-weeks old male mdx littermates were injected in both tibialis anterior muscles with vehicle (5% DMSO, 95% PBS) or 86 μg of OT-9. Two mice were injected in both TAs with vehicle and three mice were injected in both TAs with 200 of OT-9 (9.4 mM solution containing 86 μg of OT-9). After 4 hours, the muscles were harvested and processed for gene expression analysis. For assessment of activity of OT-9m after local administration, 19-22-weeks old mdx males were injected in both tibialis anterior muscles with vehicle (5% DMSO, 95% PBS) or 3 mg/kg and 10 mg/kg of OT-9m. After 4 hours, the muscles were harvested and processed for gene expression analysis. For assessment of activity of OT-9m after systemic administration, 13-weeks old mdx males were injected subcutaneously with vehicle (4% PEG-200 in hydroxypropyl-b-cyclodextrin) or 20 mg/kg/day of OT-9m. After 13 days of treatment, the muscles were harvested and processed for gene expression analysis.
# To evaluate the in vivo safety and activity of OT-9, we performed two pilot studies in wild-type C57/B16 and mdx mice. For the preliminary safety assessment of OT-9, we performed IP injections in 6-month old C57/B16 males. The mice were injected with vehicle, 30 mg/kg of OT-9, or 50 mg/kg of OT-9 (n=1).
# [2] = Half-life analysis in PBS pH 7.4; type: physicochemical; conditions: PBS pH 7.4, 37° C.
# Experimental: Half-life analysis was performed by Eurofins Panlabs Inc. using 1 μM of compound with a final DMSO concentration of 0.5%. PBS or plasma from CD-1 mice was pre-warmed to 37° C. for 5 mins before addition of the test compounds and continued incubation at 37° C. At 0, 30, 60, 120, 240, and 1440 mins an aliquot of solution containing compounds was mixed with acetonitrile/methanol, mixed, and centrifuged. The supernatants were used for HPLC-MS/MS analysis.
# [3] = test system: alpha-dystroglycan (α-DG); experiment: Immunoblot of total protein lysates, C2C12 myotubes; type: cell-based, murine; conditions: 5 μM, 48 hours
# Experimental: (§1) Myotubes treated for 48 hrs were lysed using RIPA buffer (Thermo Fisher Scientific) containing Halt Protease Inhibitor Cocktail (Thermo Fisher Scientific). Cell lysates in RIPA buffer were rocked for 1 hr at 4° C. and centrifuged at 1,000 RPM for 30 mins at 4° C. The supernatant was collected, quantified for protein concentration using the DC protein assay (Bio-Rad), and normalized to 2 mg/ml in water and Laemmli sample buffer with a final concentration of 10% glycerol (Sigma-Aldrich), 5% beta-mercaptoethanol (Sigma-Aldrich), 3% sodium dodecyl sulfate (Sigma-Aldrich), and 0.05% bromophenol blue (Sigma-Aldrich). For SDS-PAGE, samples were heated to 95° C. for 2 mins before loading 40 μg onto 4-12% tris-glycine or bis-tris polyacrylamide gels (Novex), electrophoresed for 2 hrs at 100 volts at RT, and transferred to a nitrocellulose membrane for 2 hrs at 100 volts at 4° C. Ponceau S staining was performed to visualize protein loading and verify protein transfer. […] Autoradiography films were developed using a SRX-101A tabletop processor (Konica Minolta), scanned to a digital file, and analyzed by densitometry of bands using ImageJ version 1.51 s. […]
# [4] = test system: SSPN protein; experiment: Sarcospan immunoblot of H2K mdx myotubes; type: cell-based, murine; conditions: 2.5 to 10 μM, 48 hours
# Experimental: as §1, with “(Sigma-Aldrich).” for “(Sigma-Aldrich). For SDS-PAGE, samples were heated to 95° C. for 2 mins before loading 40 μg onto 4-12% tris-glycine or bis-tris polyacrylamide gels (Novex), electrophoresed for 2 hrs at 100 volts at RT, and transferred to a nitrocellulose membrane for 2 hrs at 100 volts at 4° C. Ponceau S staining was performed to visualize protein loading and verify protein transfer.”
# After excluding compounds that were unstable in solution or that produced highly variable results, nine compounds remained. […] To determine if the increase in SSPN mRNA was also evident at the protein level, we treated mdx myotubes with 2.5 to 10 μM of OT-9, PC1-36, and PC1-42 and analyzed total protein lysates by immunoblotting with SSPN antibodies.
# [5] = IP 30 mg/kg or 50 mg/kg, observed 72 hours, n=1
compound,measurement,setting,value
CCN(CC)c1ccc2cc(C(=O)Nc3ccc(C(=O)N4CCCCCC4)cc3)c(=O)oc2c1 [OT-9],appearance of the dosing solution,"[1]; 50 mg/kg solution in 5% DMSO, 95% PBS",some insoluble particles were observed
same,"liver, kidneys, pancreas and intestine",[1]; [5],normal weight and size
same,observation of the injection site,[1]; [5],"No signs of inflammation, necrosis or compound accumulation"
same,half-life at 1 μM,[2],49 min
same,increase of core α-DG in total protein lysates,[3],1.5 fold
same,levels of glycosylated α-DG in total protein lysates,[3],did not increase levels of glycosylated α-DG
same,increase of SSPN protein levels,[4],1.5 fold
